System: 377384-186-R-J1-PDC complex spheroid viability
Assay: Anticancer human tumor 377384-186-R-J1-PDC patient-derived pancreatic carcinoma cell line growth inhibition [RAS]
Conditions: for IC50: curve of first compound; for viability, T/C: stronger effect = lower value
Procedure, shortened: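 Tumour cells grown as complex spheroids with HUVEC endothelial cells and mesenchymal stem cells, treated with RAS pathway inhibitor combinations. Each agent spans half-log steps from near clinical Cmax, or 10 microM where Cmax is unknown.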

[1] = second compound 0.000949 µM, first compound 0.0316 µM
[2] = second compound 0.000949 µM, first compound 0.1 µM
[3] = second compound 0.000949 µM, first compound 0.316 µM
[4] = second compound 0.000949 µM, first compound 1 µM
[5] = second compound 0.003 µM, first compound 0.0316 µM
[6] = second compound 0.003 µM, first compound 0.1 µM
[7] = second compound 0.003 µM, first compound 0.316 µM
[8] = second compound 0.003 µM, first compound 1 µM
[9] = second compound 0.00949 µM, first compound 0.0316 µM
[10] = second compound 0.00949 µM, first compound 0.1 µM
[11] = second compound 0.00949 µM, first compound 0.316 µM
[12] = second compound 0.00949 µM, first compound 1 µM
[13] = second compound 0.03 µM, first compound 0.0316 µM
[14] = second compound 0.03 µM, first compound 0.1 µM
[15] = second compound 0.03 µM, first compound 0.316 µM
[16] = second compound 0.03 µM, first compound 1 µM
[17] = second compound 0.0949 µM, first compound 0.0316 µM
[18] = second compound 0.0949 µM, first compound 0.1 µM
[19] = second compound 0.0949 µM, first compound 0.316 µM
[20] = second compound 0.0949 µM, first compound 1 µM
[21] = second compound 0.3 µM, first compound 0.0316 µM
[22] = second compound 0.3 µM, first compound 0.1 µM
[23] = second compound 0.3 µM, first compound 0.316 µM
[24] = second compound 0.3 µM, first compound 1 µM
[25] = second compound 0.000949 µM, first compound 3.16 µM
[26] = second compound 0.000949 µM, first compound 10 µM
[27] = second compound 0.003 µM, first compound 3.16 µM
[28] = second compound 0.003 µM, first compound 10 µM
[29] = second compound 0.00949 µM, first compound 3.16 µM
[30] = second compound 0.00949 µM, first compound 10 µM
[31] = second compound 0.03 µM, first compound 3.16 µM
[32] = second compound 0.03 µM, first compound 10 µM
[33] = second compound 0.0949 µM, first compound 3.16 µM
[34] = second compound 0.0949 µM, first compound 10 µM
[35] = second compound 0.3 µM, first compound 3.16 µM
[36] = second compound 0.3 µM, first compound 10 µM
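Note: spheroids exposed to compounds for seven days before readout.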

Work on CCN1CCN(Cc2ccc(Nc3ncc(F)c(-c4cc(F)c5nc(C)n(C(C)C)c5c4)n3)nc2)CC1 + CCn1c(-c2cccnc2C(C)OC)c2c3cc(ccc31)N1CCOC(CC(NC(=O)C(C(C)C)N(C)C(=O)C3(F)CCN(C(=O)C#CC(C)(C)N(C)C)CC3)C(=O)N3CCCC(N3)C(=O)OCC(C)(C)C2)C1 yielded an IC50 (second compound 0.000949 µM) of 0.315 µM, an IC50 (second compound 0.003 µM) of 0.222 µM and an IC50 (second compound 0.00949 µM) of 0.257 µM. It also gave an IC50 (second compound 0.03 µM) of 0.126 µM, an IC50 (second compound 0.0949 µM) of 0.178 µM and an IC50 (second compound 0.3 µM) of 0.0837 µM. For the same molecule, the viability, T/C (second compound 0.000949 µM, first compound 0.00316 µM) was 97%, the viability, T/C (second compound 0.000949 µM, first compound 0.01 µM) was 75.4% and the viability, T/C [1] was 68.4%. The viability, T/C [2] was 65.8%, the viability, T/C [3] was 46.6% and the viability, T/C [4] was 42%. The viability, T/C (second compound 0.003 µM, first compound 0.00316 µM) was 96%, the viability, T/C (second compound 0.003 µM, first compound 0.01 µM) was 78.7% and the viability, T/C [5] was 75.3%. The viability, T/C [6] was 54.6%, the viability, T/C [7] was 45.8% and the viability, T/C [8] was 41.3%. For the same molecule, the viability, T/C (second compound 0.00949 µM, first compound 0.00316 µM) was 102%, the viability, T/C (second compound 0.00949 µM, first compound 0.01 µM) was 93.4% and the viability, T/C [9] was 65.2%. It also gave a viability, T/C [10] of 60%, a viability, T/C [11] of 50.2% and a viability, T/C [12] of 43.2%. For the same molecule, the viability, T/C (second compound 0.03 µM, first compound 0.00316 µM) was 81.2%, the viability, T/C (second compound 0.03 µM, first compound 0.01 µM) was 89.2% and the viability, T/C [13] was 75.9%. The viability, T/C [14] was 52%, the viability, T/C [15] was 43% and the viability, T/C [16] was 44.5%. The viability, T/C (second compound 0.0949 µM, first compound 0.00316 µM) was 85%, the viability, T/C (second compound 0.0949 µM, first compound 0.01 µM) was 83.3% and the viability, T/C [17] was 73.9%. It also gave a viability, T/C [18] of 58.8%, a viability, T/C [19] of 41.3% and a viability, T/C [20] of 34.5%. The viability, T/C (second compound 0.3 µM, first compound 0.00316 µM) was 75.3%, the viability, T/C (second compound 0.3 µM, first compound 0.01 µM) was 73% and the viability, T/C [21] was 64.2%. For the same molecule, the viability, T/C [22] was 48.4%, the viability, T/C [23] was 34.5% and the viability, T/C [24] was 35.3%.
Cc1nc(N2CCC3(CC2)COC(C)C3N)c(CO)nc1Sc1ccnc(N)c1Cl (stereo unspecified) + CCn1c(-c2cccnc2C(C)OC)c2c3cc(ccc31)N1CCOC(CC(NC(=O)C(C(C)C)N(C)C(=O)C3(F)CCN(C(=O)C#CC(C)(C)N(C)C)CC3)C(=O)N3CCCC(N3)C(=O)OCC(C)(C)C2)C1 gave an IC50 (second compound 0.000949 µM) greater than 10 µM, an IC50 (second compound 0.003 µM) greater than 10 µM and an IC50 (second compound 0.00949 µM) greater than 10 µM. It also gave an IC50 (second compound 0.03 µM) greater than 10 µM, an IC50 (second compound 0.0949 µM) greater than 10 µM and an IC50 (second compound 0.3 µM) greater than 10 µM. The viability, T/C [1] was 91.7%, the viability, T/C [2] was 84.8% and the viability, T/C [3] was 78.1%. The viability, T/C [4] was 83.8%, the viability, T/C [25] was 79.5% and the viability, T/C [26] was 78.4%. The viability, T/C [5] was 95%, the viability, T/C [6] was 97.7% and the viability, T/C [7] was 95%. The viability, T/C [8] was 84.7%, the viability, T/C [27] was 87.7% and the viability, T/C [28] was 72.6%. It also gave a viability, T/C [9] of 103%, a viability, T/C [10] of 74.7% and a viability, T/C [11] of 74.8%. For the same molecule, the viability, T/C [12] was 75%, the viability, T/C [29] was 90% and the viability, T/C [30] was 79%. It also gave a viability, T/C [13] of 86.2%, a viability, T/C [14] of 87.3% and a viability, T/C [15] of 91%. It also gave a viability, T/C [16] of 79%, a viability, T/C [31] of 74.4% and a viability, T/C [32] of 69%. It also gave a viability, T/C [17] of 82.3%, a viability, T/C [18] of 84.8% and a viability, T/C [19] of 70.1%. It also gave a viability, T/C [20] of 63.3%, a viability, T/C [33] of 77.9% and a viability, T/C [34] of 71.6%. For the same molecule, the viability, T/C [21] was 77.2%, the viability, T/C [22] was 72% and the viability, T/C [23] was 71%. For the same molecule, the viability, T/C [24] was 70.9%, the viability, T/C [35] was 66.8% and the viability, T/C [36] was 61%.
NC1c2ccccc2OC12CCN(c1cnc3c(N4CCCc5ncccc54)n[nH]c3n1)CC2 (stereo unspecified) + CCn1c(-c2cccnc2C(C)OC)c2c3cc(ccc31)N1CCOC(CC(NC(=O)C(C(C)C)N(C)C(=O)C3(F)CCN(C(=O)C#CC(C)(C)N(C)C)CC3)C(=O)N3CCCC(N3)C(=O)OCC(C)(C)C2)C1 was tested, and the IC50 (second compound 0.000949 µM) was greater than 10 µM, the IC50 (second compound 0.003 µM) was greater than 10 µM and the IC50 (second compound 0.00949 µM) was greater than 10 µM. It also gave an IC50 (second compound 0.03 µM) greater than 10 µM, an IC50 (second compound 0.0949 µM) greater than 10 µM and an IC50 (second compound 0.3 µM) greater than 10 µM. For the same molecule, the viability, T/C [1] was 106%, the viability, T/C [2] was 97.5% and the viability, T/C [3] was 88.2%. For the same molecule, the viability, T/C [4] was 82.3%, the viability, T/C [25] was 84.3% and the viability, T/C [26] was 84.3%. The viability, T/C [5] was 98.8%, the viability, T/C [6] was 86.1% and the viability, T/C [7] was 82.2%. The viability, T/C [8] was 79.9%, the viability, T/C [27] was 93.3% and the viability, T/C [28] was 67.4%. For the same molecule, the viability, T/C [9] was 97.3%, the viability, T/C [10] was 84.3% and the viability, T/C [11] was 84.5%. For the same molecule, the viability, T/C [12] was 73.8%, the viability, T/C [29] was 89.8% and the viability, T/C [30] was 76.1%. It also gave a viability, T/C [13] of 102%, a viability, T/C [14] of 84.4% and a viability, T/C [15] of 70.6%. The viability, T/C [16] was 86%, the viability, T/C [31] was 79.2% and the viability, T/C [32] was 68.1%. The viability, T/C [17] was 75.6%, the viability, T/C [18] was 82.6% and the viability, T/C [19] was 81%. The viability, T/C [20] was 69.3%, the viability, T/C [33] was 74% and the viability, T/C [34] was 71.9%. For the same molecule, the viability, T/C [21] was 67.6%, the viability, T/C [22] was 60.1% and the viability, T/C [23] was 59.4%. The viability, T/C [24] was 63.1%, the viability, T/C [35] was 70.9% and the viability, T/C [36] was 59.9%.
